Experimental findings from PubChem BioAssay (NCI) are described below.

Common to all, as to test: NCI anticancer screen, dose series, 48 h
The test system of assay [1] is 786-0 renal.
Assay [2] concerns CAKI-1 renal.
In assay [3] the test system is EKVX NSCLC.
In assay [4] the test system is HCC-2998 colon.
Assay [5] deals with K-562 leukemia.
Assay [6] relates to NCI-H460 lung.
The test system of assay [7] is OVCAR-4 ovarian.
The subject of assay [8] is SF-295 CNS.
In assay [9] the test system is SK-MEL-2 melanoma.
Assay [10] relates to SK-MEL-5 melanoma.

SMILES strings stand for the structures.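 Results reflect a 48-hour exposure of cells in 96-well plates to compound at five concentrations. At the GI50, growth is halved. TGI is the concentration that stops growth completely.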

Take `O=C(Nc1n[nH]c2nc(-c3ccco3)ccc12)C1CC1`: the GI50 in assay [1], in assay [2], in assay [3], in assay [4], in [5] and in assay [6] was above 25 µM throughout. Further, the GI50 in assay [7], in assay [8], in assay [9] and in [10] was above 25 µM each time. Further, the TGI in [1], in assay [2], in [3], in [4], in [5] and in assay [6] was above 25 µM each time. Besides, the TGI in [7], in assay [8], in assay [9] and in [10] was above 25 µM throughout.

For `C=C1C(=O)O[C@@H]2C(=O)[C@@H](C)[C@@H]3C=CC(=O)[C@@]3(C)[C@@H](OC(=O)/C(C)=C\C)[C@H]12`, the TGI was found to be 1 µM in assay [1]; 0.686 µM in [2]; 2.53 µM in [3]; 3.23 µM in assay [4]; 1.64 µM in assay [5]; 6.05 µM in assay [6]. The TGI was found to be 18.2 µM in [7], 27.4 µM in assay [8], 9.89 µM in assay [9] and 3.13 µM in assay [10].

As for `C=C[C@]1(C)CCC2=C(CCC3C2(C)CCC[C@]3(C)CO)C1` (stereo not given in full), the TGI in [1], in assay [2], in [3], in [4], in assay [5] and in assay [6] was above 100 µM in each case. Besides, the TGI in assay [7], in [8], in [9] and in [10] was above 100 µM throughout.

In the case of `O=C1/C(=C\C(Cl)=C/c2ccc([N+](=O)[O-])cc2)SC(=S)N1CCc1ccc(O)cc1`, the GI50 is 0.255 µM in assay [1]; 0.548 µM in assay [2]; 0.94 µM in assay [3]; 0.392 µM in assay [4]; 0.285 µM in [5]; 1.82 µM in assay [6]. Moreover, the GI50 is 0.496 µM in assay [7], 0.501 µM in assay [8], 2.01 µM in assay [9] and 1.63 µM in [10]. In addition, the TGI is 0.707 µM in assay [1]; 1.53 µM in assay [2]; 2.21 µM in assay [3]; 1.42 µM in assay [4]; above 100 µM in [5]; 4.05 µM in [6]. Besides, the TGI in assay [7] came to 1.8 µM; in assay [8] it was 1.06 µM; in [9], 4.37 µM; in assay [10], 3.01 µM.

Turning to `CN=C1Nc2ccc(Cl)cc2C(c2ccccc2)=NN1C`, the TGI is above 100 µM in assay [1]; above 100 µM in assay [2]; above 100 µM in [3]; 64.7 µM in assay [4]; above 100 µM in assay [5]; above 100 µM in assay [6]. The TGI in assay [7], in assay [8], in assay [9] and in assay [10] was above 100 µM each time.

For the molecule `CCC1=C(C)/C(=C/c2[nH]c(CBr)c(CC)c2C)N=C1CBr`, the TGI in assay [1] is 40.4 µM; in assay [2], 25.8 µM; in assay [3], 49.1 µM; in [4] it was 26.3 µM; in [5], above 100 µM; in assay [6] it was 38.9 µM. Further, the TGI is above 100 µM in assay [7], 42.7 µM in assay [8], 48.5 µM in assay [9] and 30.5 µM in [10].

For the molecule `N.N.N.N.N.N.[I-].[Os]`, the GI50 in assay [1], in assay [2], in [3], in assay [4], in assay [5] and in assay [6] was above 100 µM throughout. The GI50 in [7], in [8], in assay [9] and in assay [10] was above 100 µM each time. Also, the TGI in assay [1], in [2], in assay [3], in [4], in [5] and in [6] was above 100 µM throughout. Besides, the TGI in [7], in [8], in assay [9] and in assay [10] was above 100 µM in each case.

Consider `c1cc(OCCN2CCCCCC2)ccc1CNc1ccc2nc(CCC3CCCCC3)[nH]c2c1`, for which the GI50 in assay [1] was 1.6 µM; in assay [2], 1.98 µM; in assay [3], 2.49 µM; in assay [4], 1.99 µM; in assay [5] it was 1.63 µM; in [6], 2.06 µM. The GI50 in [7] was 3.2 µM; in assay [8] it was 1.94 µM; in assay [9] it was 1.88 µM; in assay [10] it was 1.74 µM. Moreover, the TGI in assay [1] came out at 3.29 µM; in [2], 4.05 µM; in [3] it was 9.58 µM; in [4], 3.98 µM; in [5] it was 4.61 µM; in [6], 4.64 µM. For the same molecule, the TGI in assay [7] was 13.8 µM; in assay [8], 3.82 µM; in assay [9], 3.63 µM; in assay [10] it was 3.17 µM.

In the case of `CCOC(=O)c1c(C)nc2ccc(Cl)cc2c1-c1ccccc1`, the GI50 was 17 µM in assay [1]; 21.1 µM in assay [2]; 25.6 µM in assay [3]; 19.4 µM in [4]; 20.1 µM in assay [5]; 20.2 µM in assay [6]. Moreover, the GI50 in [7] was 20.6 µM; in [8], 19.4 µM; in [9] it was 15 µM; in assay [10], 14.5 µM. In addition, the TGI in assay [1] is 35.1 µM; in [2], 55 µM; in assay [3], 88.2 µM; in assay [4], 46.9 µM; in assay [5], above 100 µM; in [6] it was 45.2 µM. For the same molecule, the TGI in assay [7] was determined as 66.6 µM; in assay [8] it was 46.8 µM; in assay [9], 34.1 µM; in assay [10], 29 µM.
